These results are taken from ChEMBL document CHEMBL1137409, “Discovery of phenyl acetic acid substituted quinolines as novel liver X receptor agonists for the treatment of atherosclerosis” (J Med Chem, 2006).

Data set [1] concerns the target T1, Peroxisome proliferator-activated receptor gamma (Homo sapiens, UniProt P37231).
T1 sequence (P37231 whole entry): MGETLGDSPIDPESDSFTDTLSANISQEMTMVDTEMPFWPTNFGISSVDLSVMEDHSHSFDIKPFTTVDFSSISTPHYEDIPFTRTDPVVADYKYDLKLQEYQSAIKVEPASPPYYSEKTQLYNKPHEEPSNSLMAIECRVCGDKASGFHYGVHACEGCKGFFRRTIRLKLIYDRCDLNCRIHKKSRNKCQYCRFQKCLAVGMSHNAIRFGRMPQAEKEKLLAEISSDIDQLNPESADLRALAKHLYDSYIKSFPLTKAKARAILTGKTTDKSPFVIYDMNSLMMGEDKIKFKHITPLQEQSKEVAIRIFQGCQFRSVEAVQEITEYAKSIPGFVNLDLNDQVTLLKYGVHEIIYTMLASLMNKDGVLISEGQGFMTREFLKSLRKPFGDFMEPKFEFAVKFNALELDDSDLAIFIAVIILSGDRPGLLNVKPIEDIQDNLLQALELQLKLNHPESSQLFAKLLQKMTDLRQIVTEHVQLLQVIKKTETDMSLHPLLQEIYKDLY

In data set [2] the target is T2, Peroxisome proliferator-activated receptor delta (Homo sapiens, UniProt Q03181).
T2 sequence (Q03181 whole entry): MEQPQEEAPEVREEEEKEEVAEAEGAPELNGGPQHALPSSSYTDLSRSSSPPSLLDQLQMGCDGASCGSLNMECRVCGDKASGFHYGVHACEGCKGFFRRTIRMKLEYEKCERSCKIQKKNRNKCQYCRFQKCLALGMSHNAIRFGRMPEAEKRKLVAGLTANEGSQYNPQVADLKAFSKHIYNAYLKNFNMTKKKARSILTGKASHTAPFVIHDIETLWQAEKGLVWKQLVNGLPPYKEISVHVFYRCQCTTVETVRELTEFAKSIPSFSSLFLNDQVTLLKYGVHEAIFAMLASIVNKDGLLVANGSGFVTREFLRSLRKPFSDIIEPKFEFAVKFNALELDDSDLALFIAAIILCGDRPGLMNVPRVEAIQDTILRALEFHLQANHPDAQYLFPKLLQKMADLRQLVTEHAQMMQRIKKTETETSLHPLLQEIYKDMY
In words: Agonist activity at human PPAR delta by GAL4 transactivation assay. It is filed as functional.

Data set [3] has as its target T3, Peroxisome proliferator-activated receptor alpha (Homo sapiens, UniProt Q07869).
T3 sequence (Q07869 whole entry): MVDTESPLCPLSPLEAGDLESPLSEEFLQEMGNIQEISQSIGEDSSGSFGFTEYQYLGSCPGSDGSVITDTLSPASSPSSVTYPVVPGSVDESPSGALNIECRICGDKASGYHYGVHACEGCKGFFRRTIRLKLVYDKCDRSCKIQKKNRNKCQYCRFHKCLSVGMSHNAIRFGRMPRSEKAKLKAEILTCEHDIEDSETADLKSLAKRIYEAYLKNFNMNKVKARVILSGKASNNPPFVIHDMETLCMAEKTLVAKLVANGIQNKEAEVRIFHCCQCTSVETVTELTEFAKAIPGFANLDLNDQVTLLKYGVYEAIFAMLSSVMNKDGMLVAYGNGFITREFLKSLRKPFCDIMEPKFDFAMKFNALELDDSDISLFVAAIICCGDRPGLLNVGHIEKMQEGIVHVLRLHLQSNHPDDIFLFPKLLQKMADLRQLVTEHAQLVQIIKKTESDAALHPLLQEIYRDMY
In words: Agonist activity at human PPAR alpha by GAL4 transactivation assay. The class given is functional.

Data set [4] has as its system THP-1. Put plainly: Induction of ABCA1 expression in THP1 cell line relative to TO901317. The class given is functional, Homo sapiens.
The test system of data set [5] is Huh-7. In words: Induction of SREBP1c expression in Huh7 cell line. It is filed as functional, cell-based. Conditions: Homo sapiens.
Data set [6] relates to Huh-7. Put plainly: Induction of SREBP1c expression in Huh7 cell line relative to TO901317. It is filed as functional, Homo sapiens.
The subject of data set [7] is THP-1. Put plainly: Induction of ABCA1 expression in THP1 cell line. The class given is functional, cell-based. As to conditions: Homo sapiens.
The nature of data set [8]: Half life in human liver microsomes. The class given is ADME, Microsome.
The nature of data set [9]: Bioavailability in C57 mouse at 10 mg/kg, po. The class given is ADME, organism-based. Conditions: in vivo.
Data set [10] concerns the target T4, Oxysterols receptor LXR-alpha (Homo sapiens, UniProt Q13133).
T4 sequence (Q13133 whole entry): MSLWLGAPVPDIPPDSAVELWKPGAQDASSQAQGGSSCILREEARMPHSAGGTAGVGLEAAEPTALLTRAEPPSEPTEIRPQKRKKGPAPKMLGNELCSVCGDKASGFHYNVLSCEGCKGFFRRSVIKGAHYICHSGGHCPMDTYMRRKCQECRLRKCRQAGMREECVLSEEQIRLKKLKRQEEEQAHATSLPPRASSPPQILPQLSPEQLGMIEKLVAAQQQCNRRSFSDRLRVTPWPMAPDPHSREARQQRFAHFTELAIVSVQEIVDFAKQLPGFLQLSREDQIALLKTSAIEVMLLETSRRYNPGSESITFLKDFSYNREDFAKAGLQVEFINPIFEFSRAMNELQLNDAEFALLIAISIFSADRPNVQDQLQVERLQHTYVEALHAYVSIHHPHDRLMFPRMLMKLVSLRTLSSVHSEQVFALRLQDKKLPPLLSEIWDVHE

Data set [11] in a line: Tmax in C57 mouse at 10 mg/kg, po. The class given is ADME, organism-based. Also noted: dose 10 mg/kg, route oral. As to conditions: in vivo.
The nature of data set [12]: AUC (0-infinity) in C57 mouse at 10 mg/kg, po. It is filed as ADME, organism-based. Also noted: time infinity, dose 10 mg/kg, route oral. As to conditions: plasma.
Data set [13] in a line: Terminal half life in C57 mouse at 10 mg/kg, po. The class given is ADME, organism-based. More on the design: dose 10 mg/kg, route oral. As to conditions: in vivo, read-out: beta t1/2 (converted).
Data set [14] is described as follows: Cmax in C57 mouse at 10 mg/kg, po. As to conditions: in vivo. Also noted: dose 10 mg/kg, route oral. It is filed as ADME, organism-based.
The next data set deals with Mus musculus. Put plainly: Reduction of atherosclerotic lesion of thoracic aorta in LDLr knockout C57BL/6 mouse at 10 mg/kg/day, po after 8 weeks relative to control. It is filed as functional. Also noted: scale not given: the % may be the effect or the level left.
In data set [15] the test system is THP-1. Put plainly: Stimulation of cholesterol efflux in THP1 cell line. The class given is functional, cell-based. Conditions: Homo sapiens.
In data set [16] the target is T4, Oxysterols receptor LXR-alpha. Put plainly: Agonist activity at human LXR alpha expressed in Huh7 cells by GAL4 transactivation assay. It is filed as functional, cell-based, Huh-7.
For data set [17], the target named is T5, Oxysterols receptor LXR-beta (Homo sapiens, UniProt P55055).
T5 sequence (P55055 whole entry): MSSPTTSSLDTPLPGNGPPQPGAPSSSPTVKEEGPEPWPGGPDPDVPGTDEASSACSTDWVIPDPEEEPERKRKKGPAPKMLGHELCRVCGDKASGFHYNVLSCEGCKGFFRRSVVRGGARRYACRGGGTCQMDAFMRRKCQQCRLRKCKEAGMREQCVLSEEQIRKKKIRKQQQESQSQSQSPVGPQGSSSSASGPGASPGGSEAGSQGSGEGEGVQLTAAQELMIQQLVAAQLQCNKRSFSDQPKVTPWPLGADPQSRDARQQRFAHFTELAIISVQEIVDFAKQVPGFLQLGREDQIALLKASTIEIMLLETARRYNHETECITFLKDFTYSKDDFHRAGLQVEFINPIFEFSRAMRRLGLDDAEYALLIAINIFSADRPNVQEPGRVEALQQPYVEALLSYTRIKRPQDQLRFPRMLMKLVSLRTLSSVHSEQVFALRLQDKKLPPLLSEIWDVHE
In words: Agonist activity at human LXR beta expressed in Huh7 cells by GAL4 transactivation assay. It is filed as functional, cell-based, Huh-7.

Data set [18] deals with T5, Oxysterols receptor LXR-beta.
Data set [19] shares this target. This is another data set of the same source.
The nature of data set [20]: Half life in human liver microsomes at 20 uM. The class given is ADME, Microsome. For orientation: Liver microsomes are vesicles of endoplasmic reticulum, rich in cytochrome P450 enzymes.

A word on the EC50: it is the concentration at which the effect is half-maximal. In the case of `O=C(O)Cc1ccc(COc2cccc(-c3c(Cc4ccccc4)cnc4c(C(F)(F)F)cccc34)c2)cc1`, the EC50 in data set [1] amounted to 0.68 µM; in [2], 0.627 µM; in data set [3] it was 1.31 µM; with Huh-7 [5], 0.045 µM; in the data set with THP-1 [7], 0.055 µM. Further, the Efficacy in the data set on THP-1 [4] came to 172%; in the data set on Huh-7 [6], 106%. In addition, the half-life in data set [8] worked out at 107 min.

One may read the bioavailability as the share of a dose that reaches the circulation, judged against a reference dose that is usually intravenous. Usually IC50 stands for the midpoint of a concentration-inhibition curve. Usually Tmax stands for the time at which the peak concentration occurs. In general, AUC(0-inf) refers to the area under the concentration-time curve extrapolated to infinity. Usually Cmax stands for the peak of the concentration-time curve. `O=C(O)Cc1ccc(CNc2cccc(-c3c(Cc4ccccc4)cnc4c(C(F)(F)F)cccc34)c2)cc1`: in data set [9], the bioavailability stood at 67%. Also, the EC50 in data set [1] is 0.32 µM; in data set [2], 1.32 µM; in data set [3] it was 1.3 µM; in the data set with Huh-7 [5], 0.015 µM; in the data set with THP-1 [15] it was 0.037 µM; with THP-1 [7] it was 0.033 µM. Further, the EC50 in [16] worked out at 0.16 µM; in data set [17] it was 0.087 µM; in data set [18] it was 0.033 µM. Further, the IC50 in data set [10] stood at 0.0076 µM. In addition, the Tmax in data set [11] stood at 30 min. In [12], the AUC(0-inf) worked out at 4440 ng·h/mL. Besides, the Efficacy worked out at 151% in the data set with THP-1 [4] and 73% in the data set on Huh-7 [6]. The half-life in data set [13] is 78 min. The same compound registered a Cmax in data set [14] of 3740 ng/mL. In addition, the Activity in the data set on Mus musculus is recorded as 45%.

Turning to `COC(=O)c1ccc(COc2cccc(-c3c(C(=O)c4ccccc4)cnc4c(C(F)(F)F)cccc34)c2)cc1`, the IC50 in data set [10] and in data set [19] was over 1 µM in each case. A half-maximal effect in data set [18] (EC50) was put at 0.296 µM.

As to `O=C(O)Cc1ccc(COc2cccc(-c3c(C(=O)c4ccccc4)cnc4c(C(F)(F)F)cccc34)c2)cc1`, the half-life at 20 µM in data set [20] was found to be 3.5 min.

As to `O=C(O)Cc1cccc(OCCCN(Cc2cccc(C(F)(F)F)c2Cl)CC(c2ccccc2)c2ccccc2)c1`, the IC50 was 0.1 µM in [10] and 0.012 µM in data set [19]. Besides, in the data set on Mus musculus, the Activity worked out at 27%. Also, a half-maximal effect in [18] (EC50) was put at 0.41 µM.
